One data set concerns the target T1, BRN2 (Homo sapiens, UniProt P20265).
T1 sequence (P20265 1-443): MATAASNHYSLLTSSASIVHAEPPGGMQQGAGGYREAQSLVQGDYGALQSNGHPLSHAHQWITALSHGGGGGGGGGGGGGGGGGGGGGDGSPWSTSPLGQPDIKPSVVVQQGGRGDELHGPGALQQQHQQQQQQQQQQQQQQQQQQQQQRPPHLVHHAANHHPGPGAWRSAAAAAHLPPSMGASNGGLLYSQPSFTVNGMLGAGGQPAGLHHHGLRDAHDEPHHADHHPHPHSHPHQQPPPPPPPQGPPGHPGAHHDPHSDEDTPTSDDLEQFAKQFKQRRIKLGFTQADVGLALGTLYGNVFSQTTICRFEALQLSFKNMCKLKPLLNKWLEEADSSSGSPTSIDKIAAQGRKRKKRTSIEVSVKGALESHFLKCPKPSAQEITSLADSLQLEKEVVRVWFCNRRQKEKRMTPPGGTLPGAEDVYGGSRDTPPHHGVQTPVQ
Kind of data set: cell-based. The following applies: negative = activation; for inhibition at 10 µM: read-out: % BRN2 Inhibition (10 μM), 10 μM compound, 24 hours, 42D^ENZR cells stably expressing BRN2-luciferase reporter; for inhibition at 30 µM: read-out: % BRN2 Inhibition (30 μM), 30 μM compound, 24 hours, 42D^ENZR cells stably expressing BRN2-luciferase reporter. From the text: Decreased expression of luciferase protein is validated via western blot to confirm downregulation and avoid false positive molecules that inhibit luciferase protein activity and not BRN2-drive luciferase expression. Molecules are prioritized by their inhibition potency to measure direct interaction with BRN2 in Step 2.
In TABLES 1 and 2, when a single value is mentioned in columns Met Stab % and T½, it refers to compound's stability in MLM and when two values are given they represent HLM/MLM. There is a distinction in TABLES 1 and 2 difference between “Active” and “Specific” or “Specificity”. Compounds are first tested to quantify inhibition of BRN2 transcriptional activity in a luciferase assay to determine “Activity” at […] and 30 μM concentrations. […] Where data is not available “na” is inserted. Where data has yet to be calculated the notation “nc” is used.

Data set [1] is described as follows: Liver microsome metabolic stability, HLM. The data set is classed as in vitro ADME. To be noted: HLM (first of two values), 1 μM compound, 0.25 mg/mL protein; for Met Stab % (60 mins HLM/MLM): percent remaining at 60 min, 1 mM NADPH; for half-life at 1 µM: human, liver microsomes, pH 7.4, read-out: T1/2 in (mins HLM/MLM). As to the method: (§1) Potassium phosphate buffer (Kphos) was prepared by adding 0.647 g potassium phosphate monobasic (KH2PO4) and 3.527 g potassium phosphate dibasic ([…]) to 400 mL of Milli-Q water. pH of the buffer was adjusted to 7.4 and volume was made up to 500 mL.
(§2) Microsomes (20 mg/mL) were diluted in KH2PO4 buffer to prepare a concentration of 0.357 mg/mL.
(§3) Stock solutions of BRN2 inhibitors were prepared in DMSO at a concentration of 1 mM
(§4) A stock solution of 3.33 mM NADPH (3.33×) was prepared by dissolving appropriate amount of NADPH in KH2PO4 buffer.
(§5) Total Incubation volume: 100 μL
(§6) Compound concentration: 1 μM
(§7) Protein Concentration: 0.25 mg/mL
(§8) An 1120 μL aliquot of Kphos buffer (50 mM, pH 7.4) containing liver microsomes (0.357 mg/mL) were added to individual 2 mL tubes (final concentration 0.25 mg/mL). Test compounds (1 mM) and positive controls were directly spiked into respective tubes to prepare a concentration of 1.428 μM (final concentration 1 μM). From the above mix, 70 μL was added to individual wells of 96 well reaction plates and pre-incubated in a 37° C. water bath for 5 min. All the reactions were initiated by adding 30 μL of 3.33 mM NADPH (final concentration 1 mM). Reactions without NADPH and buffer controls (minus NADPH) at 0 min and 60 min were also incubated to rule out non-NADPH metabolism or chemical instability in the incubation buffer. All reactions were terminated using 100 μL of ice-cold acetonitrile containing internal standard at 0, 5, 15, 30 and 60 min. The plates were centrifuged at 4000 RPM for 15 min and 100 μL aliquots were submitted for analysis by LC-MS/MS.
(§9) Samples were monitored for parent compounds disappearance in MRM mode using LC-MS/MS.
(§10) The percent remaining of test compounds and positive control in each sample was determined by considering peak area ratio in the 0 minute sample as 100%. The Half-life of compounds in microsomes is calculated by formula:
(§11) Half-life (t½) (min)=0.693/k, where k is gradient of line determined from plot of peak area ratio (compound peak area/internal standard peak area) against time.
(§12) In vitro intrinsic clearance (CL'int) (units in mL/min/kg) was calculated using the formula.
(§13) [formula] • For liver microsomes, scaling factor used was 45 mg microsomal protein per gm liver. • Indicates liver weight (gm) which varies species wise. For mice the liver weights are 90 gm.
(§14) Where data is not available “na” is inserted.

Data set [2] is described as follows: Liver microsome metabolic stability, MLM. The data set is classed as in vitro ADME. The following applies: MLM (single value or second of two), 1 μM compound, 0.25 mg/mL protein; for Met Stab % (60 mins HLM/MLM): percent remaining at 60 min, 1 mM NADPH; for half-life at 1 µM: mouse, liver microsomes, pH 7.4, read-out: T1/2 in (mins HLM/MLM). Here is the method:
as §1, §2, §3, §4, §5, §6, §7, §8, §9, §10, §11, §12, §13, §14

SMILES strings stand for the structures.

From patent US20220106304A1, “Transcription Factor BRN2 Inhibitory Compounds as Therapeutics and Methods for Their Use” (The University of British Columbia, priority 2018, published 2022) come the findings set out here.

On to `c1ccc2c(c1)CCC2c1cnn(-c2nc3ccccc3s2)c1` (stereo not drawn) [VPC-7-43], for which, on BRN2, the inhibition at 10 µM stood at 2% and the inhibition at 30 µM amounted to 41%. Further, in data set [1], the “Met Stab % (60 mins HLM/MLM)” value came to 20% and the half-life at 1 µM worked out at 27 min. Also, in data set [2], the “Met Stab % (60 mins HLM/MLM)” value is on record as 5% and the half-life at 1 µM turned out to be 14 min.

With `c1ccc2c(c1)CCC2c1ccc(-c2nc3ccccc3s2)o1` (stereo not drawn) [VPC-7-44], at BRN2, the inhibition at 10 µM is 83% and the inhibition at 30 µM came to 93%. Also, in data set [1], the “Met Stab % (60 mins HLM/MLM)” value stood at 62% and the half-life at 1 µM was greater than 60 min. Moreover, in data set [2], the “Met Stab % (60 mins HLM/MLM)” value was determined as 44% and the half-life at 1 µM came to 52 min.

For `Cn1c(-c2ccc(-c3ccccc3F)o2)nc2c(F)cccc21` [VPC-18-31, 4-Fluoro-2-(5-(2-fluorophenyl)furan-2-yl)-1-methyl-1H-benzo[d]imidazole], on BRN2, the inhibition at 10 µM turned out to be 67.9% and the inhibition at 30 µM worked out at 77.8%. Also, in data set [1], the “Met Stab % (60 mins HLM/MLM)” value is recorded as 17% and the half-life at 1 µM amounted to 2 min. Moreover, the “Met Stab % (60 mins HLM/MLM)” value in data set [2] is 0%.

As to `O=[N+]([O-])c1ccc2nc(-c3ccc(-c4ccccc4F)o3)[nH]c2c1` [VPC-18-32, 2-(5-(2-Fluorophenyl)furan-2-yl)-6-nitro-1H-benzo[d]imidazole], on BRN2, the inhibition at 10 µM stood at 83.7% and the inhibition at 30 µM was found to be 95.5%. Moreover, in data set [1], the “Met Stab % (60 mins HLM/MLM)” value was 20% and the half-life at 1 µM came out at 26 min. In data set [2], the “Met Stab % (60 mins HLM/MLM)” value is recorded as 4% and the half-life at 1 µM came out at 12 min.

With `c1ccc(-c2nc(-c3cc4ccccc4o3)cs2)cc1` [VPC-18-33, 4-(Benzofuran-2-yl)-2-phenylthiazole], at BRN2, the inhibition at 10 µM is 22.4% and the inhibition at 30 µM is 57.2%. For the same compound, in data set [1], the “Met Stab % (60 mins HLM/MLM)” value came to 30% and the half-life at 1 µM came to 36 min. Besides, in data set [2], the “Met Stab % (60 mins HLM/MLM)” value amounted to 1% and the half-life at 1 µM worked out at 10 min.

Turning to `COc1ccccc1-c1ccc(-c2nc3ccccc3n2C)o1` [VPC-18-35, 2-(5-(2-Methoxyphenyl)furan-2-yl)-1-methyl-1H-benzo[d]imidazole], on BRN2, the inhibition at 10 µM worked out at 51.6% and the inhibition at 30 µM is 95.8%. In data set [1], the “Met Stab % (60 mins HLM/MLM)” value turned out to be 4% and the half-life at 1 µM worked out at 13 min. Also, in data set [2], the “Met Stab % (60 mins HLM/MLM)” value is reported as 0% and the half-life at 1 µM came out at 5 min.

For `CCn1c(-c2ccc(-c3ccccc3)o2)nc2ccccc21` [VPC-18-36, 1-Ethyl-2-(5-phenylfuran-2-yl)-1H-benzo[d]imidazole], on BRN2, the inhibition at 10 µM amounted to 57.5% and the inhibition at 30 µM stood at 93.4%. For the same compound, in data set [1], the “Met Stab % (60 mins HLM/MLM)” value is given as 15% and the half-life at 1 µM came out at 22 min. Moreover, in data set [2], the “Met Stab % (60 mins HLM/MLM)” value is on record as 2% and the half-life at 1 µM stood at 13 min.

Turning to `Cn1c(-c2ccc(-c3ccc(F)cc3F)o2)nc2ccccc21` [VPC-18-41, 2-(5-(2,4-Difluorophenyl)furan-2-yl)-1-methyl-1H-benzo[d]imidazole], on BRN2, the inhibition at 10 µM is 57.5% and the inhibition at 30 µM is 91.1%. Besides, the “Met Stab % (60 mins HLM/MLM)” value in data set [1] is on record as 0/0%. For the same compound, the “Met Stab % (60 mins HLM/MLM)” value in data set [2] is recorded as 0/0%.

Turning to `CN1CCN(c2ccc(-c3nc4ccc(C(F)(F)F)cc4n3C)o2)CC1` [VPC-18-102], at BRN2, the inhibition at 10 µM is 22.6% and the inhibition at 30 µM worked out at 55.5%. In data set [2], the “Met Stab % (60 mins HLM/MLM)” value worked out at 0% and the half-life at 1 µM is 7 min.

Turning to `FC(F)(F)n1c(-c2ccc(-c3ccccc3)o2)nc2ccccc21` [VPC-18-103], on BRN2, the inhibition at 10 µM is 88.5% and the inhibition at 30 µM came out at 95.3%. Also, in data set [2], the “Met Stab % (60 mins HLM/MLM)” value was found to be 0% and the half-life at 1 µM worked out at 9 min.

Take `FC(F)(F)c1ccc2cc(-c3csc(-c4cocn4)n3)oc2c1` [VPC-18-106]: on BRN2, the inhibition at 10 µM was found to be 90.6% and the inhibition at 30 µM turned out to be 90%. Besides, in data set [2], the “Met Stab % (60 mins HLM/MLM)” value is reported as 7% and the half-life at 1 µM was determined as 16 min.

For the compound `Clc1ccc2nc(-c3csc(-c4ccco4)n3)oc2c1` [VPC-18-107], at BRN2, the inhibition at 10 µM was 36.9% and the inhibition at 30 µM was 66.9%. In data set [2], the “Met Stab % (60 mins HLM/MLM)” value is listed as 7% and the half-life at 1 µM was found to be 8 min.

As for `O=C1CCN(c2nc(-c3cc4ccc(Cl)cc4o3)cs2)C1` [VPC-18-109], on BRN2, the inhibition at 10 µM was 81.7% and the inhibition at 30 µM was found to be 91.5%. In data set [2], the “Met Stab % (60 mins HLM/MLM)” value was found to be 4% and the half-life at 1 µM was 13 min.

Turning to `FC(F)(F)c1ccc2cc(-c3csc(-c4cc[nH]c4)n3)oc2c1` [VPC-18-111], on BRN2, the inhibition at 10 µM is 96.2% and the inhibition at 30 µM was 98.6%. In data set [2], the “Met Stab % (60 mins HLM/MLM)” value stood at 38% and the half-life at 1 µM worked out at 48 min.

For the compound `c1ccc2c(-c3cnc(-c4ccoc4)s3)coc2c1` [VPC-18-112], at BRN2, the inhibition at 10 µM amounted to 41.8% and the inhibition at 30 µM came to 81.6%. Besides, in data set [2], the “Met Stab % (60 mins HLM/MLM)” value is listed as 1% and the half-life at 1 µM is 9 min.

On to `Oc1ccc2cc(-c3csc(-c4ccco4)n3)oc2c1` [VPC-18-113], for which, at BRN2, the inhibition at 10 µM was found to be 94% and the inhibition at 30 µM was 94%. Also, in data set [2], the “Met Stab % (60 mins HLM/MLM)” value is given as 3% and the half-life at 1 µM was 12 min.

In the case of `Clc1ccc2cc(-c3csc(C4CCCO4)n3)oc2c1` (stereo not drawn) [VPC-18-114], on BRN2, the inhibition at 10 µM was 92% and the inhibition at 30 µM is 95%. In data set [2], the “Met Stab % (60 mins HLM/MLM)” value worked out at 14% and the half-life at 1 µM amounted to 25 min.

As to `COc1ccc2cc(-c3csc(-c4ccco4)n3)oc2c1` [VPC-18-118], at BRN2, the inhibition at 10 µM was found to be 74% and the inhibition at 30 µM was 92.5%. For the same compound, in data set [2], the “Met Stab % (60 mins HLM/MLM)” value was found to be 1% and the half-life at 1 µM came out at 9 min.

Turning to `FC(F)(F)c1ccc2cc(-c3coc(-c4ccco4)n3)oc2c1` [VPC-18-120], on BRN2, the inhibition at 10 µM stood at 88.9% and the inhibition at 30 µM came to 88.8%. For the same compound, in data set [2], the “Met Stab % (60 mins HLM/MLM)” value is 6% and the half-life at 1 µM was 13 min.

On to `Clc1ccc2cc(-c3coc(-c4ccco4)n3)oc2c1` [VPC-18-121], for which, at BRN2, the inhibition at 10 µM worked out at 92.7% and the inhibition at 30 µM was determined as 93.5%. For the same compound, in data set [2], the “Met Stab % (60 mins HLM/MLM)” value is given as 0% and the half-life at 1 µM was determined as 8 min.
